# Assays:
# CSNK1D = biological target: T1, CSNK1D (Homo sapiens, UniProt P48730); assay: Kinase inhibition test (DNA-tagged kinase, affinity resin, qPCR readout); assay type: binding; design: key: (−) indicates no effect; (+) indicates weak inhibitory activity; (++) indicates a moderate level of inhibitory activity; (+++) indicates strong inhibitory activity; conditions: 1 μM of compound
# T1 construct: made in house
# From the text: (§1) In order to examine the inhibitory activity of the nucleoside derivatives of the present invention synthesized in the Preparation Examples against kinases, the nucleoside derivatives were confirmed to have inhibitory activity against neurotrophic tyrosine kinase receptor type 1 or tropomyosin receptor kinase A (NTRK1), casein kinase 1 isoform delta (CSNK1D), dual specificity tyrosine-phosphorylation-regulated kinase 1A (DYRK1A), dual specificity tyrosine-phosphorylation-regulated kinase 1B (DYRK1B) and receptor-type tyrosine-protein kinase or fms like tyrosine kinase 3 or cluster of differentiation antigen 135 (CD135) or fetal liver kinase-2 (Flk2) (FLT3).
# (§2) The inhibition measurement method is as follows. Most of the kinases were produced by culturing a phage in which BL21 E. coli was tagged with a kinase at 32° C. until lysis, followed by centrifugation and filtration. Further, the kinases were produced using HEK-293 cells. Thereafter, the kinases were DNA tagged for qPCR. After an affinity resin was prepared by stirring a biotin-tagged substrate onto streptavidin-coated beads for 30 minutes, a non-specifically bound substrate was washed with a buffer (SeaBlock (Pierce), 1% BSA, 0.05% Tween 20, 1 mM DTT).
# (§3) For a kinase test, the kinase, the substrate, the affinity resin, and a test material dissolved in dimethyl sulfoxide were stirred together in a buffer (20% SeaBlock, 0.17×PBS, 0.05% Tween20, and 6 mM DTT) at room temperature for 1 hour. Thereafter, an affinity substrate was washed with a buffer (1×PBS, 0.05% Tween20), and then suspended in an elution buffer (1×PBS, 0.05% Tween20, 0.5 μM non-biotinylated affinity ligand), and the resulting suspension was stirred. The concentration of the kinase was quantified by qPCR.
# DYRK1A = biological target: T2, DYRK1A (Homo sapiens, UniProt Q13627); assay: as above; assay type: binding; design: key: (−) indicates no effect; (+) indicates weak inhibitory activity; (++) indicates a moderate level of inhibitory activity; (+++) indicates strong inhibitory activity; conditions: 1 μM of compound
# T2 construct: made in house
# From the text: as §1, §2, §3
# DYRK1B = biological target: T3, DYRK1B (Homo sapiens, UniProt Q9Y463); assay: as above; assay type: binding; design: key: (−) indicates no effect; (+) indicates weak inhibitory activity; (++) indicates a moderate level of inhibitory activity; (+++) indicates strong inhibitory activity; conditions: 1 μM of compound
# T3 construct: made in house
# From the text: as §1, §2, §3
# NTRK1 = biological target: T4, NTRK1 (Homo sapiens, UniProt P04629); assay: as above; assay type: binding; design: key: (−) indicates no effect; (+) indicates weak inhibitory activity; (++) indicates a moderate level of inhibitory activity; (+++) indicates strong inhibitory activity; conditions: 1 μM of compound
# T4 construct: made in house
# From the text: as §1, §2, §3
# [1] = tested on: PC-3 (prostate cancer cells); assay: Inhibitory activity against cancer cells (sulforhodamine B staining); assay type: cell-based; conditions: 3 days, SRB staining
# Protocol: (§4) In order to examine the anticancer activity of the nucleoside derivatives of the present invention synthesized in the Preparation Examples, the ICso of each of A549 (lung cancer cells), HCT116 (colon cancer cells), MDA-MB-231 (breast cancer cells), SK-Hep-1 (liver cancer cells), SNU638 (stomach cancer cells) and PC-3 (prostate cancer cells) against cancer cells was measured.
# (§5) The test method is as follows. Cells were allowed to stand for 1 day and set as a control on day 0. Further, after a test material was added to the cells, the cells were allowed to stand for 3 days. Thereafter, the cells were stained with 1% acetic acid and 0.4% sulforhodamine B. The stained cells were dried and dissolved in 10 mM Tris (pH 10.0). Absorbance was measured at 515 nm, and the degree of cell division was determined using the following equation. After calculation as Cell division (%)=(average absorbancetest material−average absorbanceday 0)/(average absorbance control-average absorbanceday 0)×100, the degree of cell division was calculated through a non-linear regression analysis using Table Curve 2D v5.01 (Systat Software Inc., San Jose, CA, USA).
# A549 (lung cancer cells) = assay: as above; assay type: cell-based; conditions: 3 days, SRB staining
# Protocol: as §4, §5
# [2] = tested on: HCT116 (colon cancer cells); assay: as above; assay type: cell-based; conditions: 3 days, SRB staining
# Protocol: as §4, §5
# [3] = tested on: MDA-MB-231 (breast cancer cells); assay: as above; assay type: cell-based; conditions: 3 days, SRB staining
# Protocol: as §4, §5
# [4] = tested on: SK-Hep-1 (liver cancer cells); assay: as above; assay type: cell-based; conditions: 3 days, SRB staining
# Protocol: as §4, §5
# [5] = tested on: SNU638 (stomach cancer cells); assay: as above; assay type: cell-based; conditions: 3 days, SRB staining
# Protocol: as §4, §5
# T3 sequence (Q9Y463 whole entry): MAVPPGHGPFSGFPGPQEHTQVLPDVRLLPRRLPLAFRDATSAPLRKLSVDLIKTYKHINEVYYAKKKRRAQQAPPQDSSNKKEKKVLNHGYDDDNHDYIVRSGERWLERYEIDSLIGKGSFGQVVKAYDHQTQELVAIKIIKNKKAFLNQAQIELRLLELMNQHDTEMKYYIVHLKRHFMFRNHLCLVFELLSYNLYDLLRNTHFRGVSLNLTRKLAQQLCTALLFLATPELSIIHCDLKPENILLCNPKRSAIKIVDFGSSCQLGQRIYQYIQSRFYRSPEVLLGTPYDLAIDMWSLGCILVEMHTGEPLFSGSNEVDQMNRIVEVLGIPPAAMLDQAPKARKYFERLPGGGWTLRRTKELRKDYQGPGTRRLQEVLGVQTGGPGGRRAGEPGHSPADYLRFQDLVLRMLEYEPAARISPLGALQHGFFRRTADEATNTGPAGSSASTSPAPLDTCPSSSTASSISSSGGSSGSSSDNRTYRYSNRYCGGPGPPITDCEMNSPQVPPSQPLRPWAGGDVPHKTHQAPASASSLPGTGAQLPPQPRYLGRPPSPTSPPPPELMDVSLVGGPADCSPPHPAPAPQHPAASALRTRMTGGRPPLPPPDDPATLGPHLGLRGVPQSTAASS
# T1 sequence (P48730 whole entry): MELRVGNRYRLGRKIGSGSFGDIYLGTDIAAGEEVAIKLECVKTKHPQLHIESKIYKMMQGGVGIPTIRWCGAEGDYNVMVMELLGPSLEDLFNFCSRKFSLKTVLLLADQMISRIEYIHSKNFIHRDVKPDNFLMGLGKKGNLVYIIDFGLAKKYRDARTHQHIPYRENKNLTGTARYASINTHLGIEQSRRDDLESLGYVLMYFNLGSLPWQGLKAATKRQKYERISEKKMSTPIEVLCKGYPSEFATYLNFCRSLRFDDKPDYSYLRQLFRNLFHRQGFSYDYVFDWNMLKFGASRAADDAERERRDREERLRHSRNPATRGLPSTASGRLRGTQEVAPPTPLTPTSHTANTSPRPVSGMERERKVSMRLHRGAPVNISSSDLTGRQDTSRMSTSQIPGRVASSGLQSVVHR
# T4 sequence (P04629 33-796): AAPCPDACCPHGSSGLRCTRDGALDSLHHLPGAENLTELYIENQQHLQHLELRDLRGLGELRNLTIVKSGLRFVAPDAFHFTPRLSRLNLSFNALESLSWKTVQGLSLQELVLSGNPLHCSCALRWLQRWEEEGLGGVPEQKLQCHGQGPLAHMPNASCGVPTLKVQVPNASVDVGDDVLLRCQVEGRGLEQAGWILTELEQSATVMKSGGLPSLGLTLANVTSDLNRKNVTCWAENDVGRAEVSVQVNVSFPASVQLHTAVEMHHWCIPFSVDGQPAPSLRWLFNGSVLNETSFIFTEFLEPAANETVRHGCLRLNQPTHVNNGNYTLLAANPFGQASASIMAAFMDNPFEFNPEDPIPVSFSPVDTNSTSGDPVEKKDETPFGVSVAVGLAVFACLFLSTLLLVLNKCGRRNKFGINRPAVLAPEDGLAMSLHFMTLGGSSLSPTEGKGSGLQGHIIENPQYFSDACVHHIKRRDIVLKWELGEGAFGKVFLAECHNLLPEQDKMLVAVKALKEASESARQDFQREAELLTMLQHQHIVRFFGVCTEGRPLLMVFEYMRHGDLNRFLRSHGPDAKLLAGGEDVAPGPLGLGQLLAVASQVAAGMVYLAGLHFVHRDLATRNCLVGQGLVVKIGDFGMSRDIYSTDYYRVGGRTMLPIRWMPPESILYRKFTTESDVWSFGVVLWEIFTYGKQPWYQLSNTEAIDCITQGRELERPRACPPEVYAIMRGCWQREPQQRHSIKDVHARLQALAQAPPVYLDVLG
Compound,CSNK1D inhibitory activity (CSNK1D),DYRK1A inhibitory activity (DYRK1A),DYRK1B inhibitory activity (DYRK1B),NTRK1 inhibitory activity (NTRK1),IC50 ([1]; 72 h) [nM],IC50 (A549 (lung cancer cells)) [nM],IC50 [2] [nM],IC50 [3] [nM],IC50 [1] [nM],IC50 [4] [nM],IC50 [5] [nM],"IC50 (A549 (lung cancer cells); Homo sapiens, 72 h) [nM]","IC50 ([2]; Homo sapiens, HCT-116, 72 h) [nM]","IC50 ([3]; Homo sapiens, 72 h) [nM]","IC50 ([4]; Homo sapiens, SK-HEP1, 72 h) [nM]","IC50 ([5]; Homo sapiens, SNU-638, 72 h) [nM]"
"Nc1ncnc2c1c(-c1ccco1)cn2[C@@H]1S[C@H](CO)[C@@H](O)[C@H]1O [Compound 1a, (2R,3R,4S,5R)-2-(4-amino-5-(furan-2-yl)-7H-pyrrolo[2,3-d]pyrimidin-7-yl)-5-(hydroxymethyl)tetrahydrothiophene-3,4-diol]",++,+++,+++,+++,2460,,,,,,,,,,,
"Nc1ncnc2c1c(-c1cccs1)cn2[C@@H]1S[C@H](CO)[C@@H](O)[C@H]1O [Compound 1b, (2R,3R,4S,5R)-2-(4-amino-5-(thiophen-2-yl)-7H-pyrrolo[2,3-d]pyrimidin-7-yl)-5-(hydroxymethyl)tetrahydrothiophene-3,4-diol]",+++,++,++,+++,2480,,,,,,,,,,,
Nc1ncnc2c1c(-c1ccccc1)cn2[C@@H]1S[C@H](CO)[C@@H](O)[C@H]1O [Compound 2b],+++,++,++,++,,7570,6350,8830,9210,7810,6320,,,,,
"C#Cc1cn([C@@H]2S[C@H](CO)[C@@H](O)[C@H]2O)c2ncnc(N)c12 [Compound 3, (2R,3R,4S,5R)-2-(4-amino-5-ethynyl-7H-pyrrolo[2,3-d]pyrimidin-7-yl)-5-(hydroxymethyl)tetrahydrothiophene-3,4-diol]",++,+++,+++,++,4,,,,,,,60,30,50,50,30
CCC#Cc1cn([C@@H]2S[C@H](CO)[C@@H](O)[C@H]2O)c2ncnc(N)c12 [Compound 4b],+,+,+,+,,> 50000,> 50000,> 50000,> 50000,> 50000,> 50000,,,,,
CC(C)(C)C#Cc1cn([C@@H]2S[C@H](CO)[C@@H](O)[C@H]2O)c2ncnc(N)c12 [Compound 4c],+,−,−,+,,> 50000,> 50000,29600,> 50000,> 50000,> 50000,,,,,
Nc1ncnc2c1c(C#CC1CC1)cn2[C@@H]1S[C@H](CO)[C@@H](O)[C@H]1O [Compound 4d],+,−,−,++,,> 50000,> 50000,30600,> 50000,8310,> 50000,,,,,
"N#Cc1cn([C@@H]2S[C@H](CO)[C@@H](O)[C@H]2O)c2ncnc(N)c12 [Compound 5, 4-amino-7-((2R,3R,4S,5R)-3,4-dihydroxy-5-(hydroxymethyl)tetrahydrothiophen-2-yl)-7H-pyrrolo[2,3-d]pyrimidine-5-carbonitrile]",++,+++,++,++,2180,,,,,,,2580,1590,2240,1790,1220
"NC(=O)c1cn([C@@H]2S[C@H](CO)[C@@H](O)[C@H]2O)c2ncnc(N)c12 [Compound 6, 4-amino-7-((2R,3R,4S,5R)-3,4-dihydroxy-5-(hydroxymethyl)tetrahydrothiophen-2-yl)-7H-pyrrolo[2,3-d]pyrimidine-5-carboxamide]",++,+++,++,+,1800,,,,,,,1990,1350,2100,1660,1130
Nc1ncnc2c1c(-c1ccco1)cn2[C@@H]1S[C@H](COC(=O)c2ccccc2)[C@@H](O)[C@H]1O [Compound 7a],++,+++,+++,+++,,6050,2210,8240,> 50000,1070,3540,,,,,
C#Cc1cn([C@@H]2S[C@H](COC(=O)c3ccccc3)[C@@H](O)[C@H]2O)c2ncnc(N)c12 [Compound 7b],++,++,++,+++,,3190,2860,2130,2050,570,1310,,,,,
C#Cc1cn([C@@H]2S[C@H](COC(=O)c3ccc(Cl)cc3)[C@@H](O)[C@H]2O)c2ncnc(N)c12 [Compound 7c],++,++,++,++,,270,230,290,230,180,130,,,,,
C#Cc1cn([C@@H]2S[C@H](COC(=O)c3ccc(OC)cc3)[C@@H](O)[C@H]2O)c2ncnc(N)c12 [Compound 7d],++,++,++,++,,350,300,360,330,250,190,,,,,
"C#Cc1cn([C@@H]2S[C@H](CN3CCOCC3)[C@@H](O)[C@H]2O)c2ncnc(N)c12 [Compound 12a, (2R,3R,4S,5R)-2-(4-amino-5-ethynyl-7H-pyrrolo[2,3-d]pyrimidin-7-yl)-5-(morpholinomethyl)tetrahydrothiophene-3,4-diol]",,,,,13200,,,,,,,11700,9720,11200,10200,9700
"C#Cc1cn([C@@H]2SC(=C)[C@@H](O)[C@H]2O)c2ncnc(N)c12 [Compound 12b, (2R,3R,4S)-2-(4-amino-5-ethynyl-7H-pyrrolo[2,3-d]pyrimidin-7-yl)-5-methylenetetrahydrothiophene-3,4-diol]",+++,+++,+++,+++,,,,,,,,250,730,500,310,620

# — US20240300991A1, “NUCLEOSIDE DERIVATIVE HAVING MULTI-TARGET KINASE INHIBITORY ACTIVITY AND PHARMACEUTICAL COMPOSITION FOR PREVENTING AND TREATING CANCER COMPRISING SAME” (FUTURE MEDICINE CO., LTD., priority 2021, published 2024)
